Reference: paper PMC7749613 (Journal of Cachexia, Sarcopenia and Muscle, 2020)
Bridge positions count the residues as written; N and C are the ends. Square brackets hold non-standard residues; d marks the D form. Peptide text beside a SMILES is read from it. d2Nal = N[C@H](Cc1ccc2ccccc2c1)C(=O)O; Nle = CCCC[C@H](N)C(=O)O

Columns and labels:
Assay type in all cases: in vitro ADME
OAT3 = target: T1, OAT3 (Homo sapiens, UniProt Q8TCC7); test: Inhibition of prototypical substrate (E3S) uptake by TCMCB07 in HEK293/OAT3 cells; settings: substrate 1.0 μM [3H]E3S, 5.0 min, up to 1000 μM TCMCB07
T1 construct: host or cells: HEK293
T1 sequence (Q8TCC7 1-542): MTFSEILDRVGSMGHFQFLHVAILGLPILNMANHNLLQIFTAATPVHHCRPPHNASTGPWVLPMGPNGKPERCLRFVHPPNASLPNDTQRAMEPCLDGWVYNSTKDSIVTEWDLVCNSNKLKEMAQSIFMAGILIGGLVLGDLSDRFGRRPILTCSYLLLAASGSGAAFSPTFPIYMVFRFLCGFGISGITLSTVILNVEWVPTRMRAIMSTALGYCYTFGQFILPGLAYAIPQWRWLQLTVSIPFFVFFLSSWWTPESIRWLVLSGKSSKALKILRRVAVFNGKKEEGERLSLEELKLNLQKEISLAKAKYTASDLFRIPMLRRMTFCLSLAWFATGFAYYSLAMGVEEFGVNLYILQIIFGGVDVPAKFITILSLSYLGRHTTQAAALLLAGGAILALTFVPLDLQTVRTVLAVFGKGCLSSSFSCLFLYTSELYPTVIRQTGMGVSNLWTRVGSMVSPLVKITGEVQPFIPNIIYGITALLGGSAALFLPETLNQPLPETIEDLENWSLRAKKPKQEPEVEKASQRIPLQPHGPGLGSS
Procedure: Cells were then washed three times × 1.0 mL each with pre‐warmed Hank's Balanced Salt Solution (HBSS) buffer. A 0.5 mL aliquot of uptake buffer [HBSS plus 10 mM 4‐(2‐hydroxyethyl)‐1‐piperazineethanesulfonic acid (HEPES), pH 7.4], containing the radiolabelled prototypical substrate and mannitol, was then incubated for various times up to 60 min to determine the optimal incubation time for subsequent experiments (i.e. time of sampling during linear uptake conditions). At the designated times, 1.0 mL of ice‐cold HBSS buffer was added to stop uptake after which the cells were rinsed three times with 1.0 mL with ice‐cold HBSS. Hyamine hydroxide (0.33 mL) was then added to each well to lyse the cells. The cells were transferred into a scintillation vial and mixed with 6.0 mL of cytosine scintillation cocktail. Radioactivity of the solubilized cells was determined with a dual‐channel liquid scintillation counter (Beckman LS 6000; Beckman Coulter Inc., Fullerton, CA) and the protein quantified by a bicinchoninic acid protein assay kit (Pierce Biotechnology; Rockford, IL).

MATE2‐K = MATE2‐K (Homo sapiens, UniProt Q86VL8)
Sequence of MATE2‐K (Q86VL8 1-566 isoform Q86VL8-3): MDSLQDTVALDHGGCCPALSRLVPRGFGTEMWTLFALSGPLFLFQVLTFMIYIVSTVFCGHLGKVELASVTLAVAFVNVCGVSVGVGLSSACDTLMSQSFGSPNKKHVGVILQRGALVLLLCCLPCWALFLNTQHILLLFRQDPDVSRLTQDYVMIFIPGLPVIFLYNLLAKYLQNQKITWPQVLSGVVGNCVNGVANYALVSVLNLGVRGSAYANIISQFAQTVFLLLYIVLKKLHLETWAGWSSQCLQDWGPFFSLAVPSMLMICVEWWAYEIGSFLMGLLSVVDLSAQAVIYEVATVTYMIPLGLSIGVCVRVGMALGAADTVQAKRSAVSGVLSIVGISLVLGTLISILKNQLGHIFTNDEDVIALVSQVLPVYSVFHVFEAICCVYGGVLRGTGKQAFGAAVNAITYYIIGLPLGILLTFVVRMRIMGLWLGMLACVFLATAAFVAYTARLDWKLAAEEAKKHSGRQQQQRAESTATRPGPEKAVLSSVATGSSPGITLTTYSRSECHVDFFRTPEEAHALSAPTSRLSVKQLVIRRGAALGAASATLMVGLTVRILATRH
Procedure: (§1) However, for these studies, a different incubation buffer was used (145 mM NaCl, 3 mM KCl, 1 mM CaCl2, 0.5 mM MgCl2, 5 mM glucose, and 5 mM HEPES, pH 7.4). ^13 Moreover, intracellular acidification was achieved by preincubating the cells in buffer containing 30 mM ammonium chloride for 20 min at 37°C. […] Radioactivity and protein measurements were performed as described previously.

MATE1 = target: T2, MATE1 (Homo sapiens, UniProt Q96FL8)
T2 sequence (Q96FL8 1-570): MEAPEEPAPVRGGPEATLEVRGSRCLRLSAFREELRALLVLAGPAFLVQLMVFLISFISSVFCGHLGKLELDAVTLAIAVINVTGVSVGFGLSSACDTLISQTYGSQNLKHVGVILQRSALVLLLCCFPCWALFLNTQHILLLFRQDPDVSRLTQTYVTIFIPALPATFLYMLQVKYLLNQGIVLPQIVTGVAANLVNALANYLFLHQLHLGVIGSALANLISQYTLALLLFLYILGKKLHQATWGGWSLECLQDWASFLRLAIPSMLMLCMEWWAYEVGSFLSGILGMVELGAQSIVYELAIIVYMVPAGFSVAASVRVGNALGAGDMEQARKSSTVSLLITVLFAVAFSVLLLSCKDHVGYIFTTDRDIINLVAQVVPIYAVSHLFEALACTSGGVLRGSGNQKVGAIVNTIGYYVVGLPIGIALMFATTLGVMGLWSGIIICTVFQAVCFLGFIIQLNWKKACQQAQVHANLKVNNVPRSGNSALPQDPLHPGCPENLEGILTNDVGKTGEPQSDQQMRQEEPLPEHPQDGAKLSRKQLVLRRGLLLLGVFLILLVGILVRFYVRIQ
Procedure: as §1

BCRP (ABCG2) = target: T3, BCRP (ABCG2) (Homo sapiens, UniProt Q9UNQ0); test: Transepithelial transport of rosuvastatin (±TCMCB07) in MDCKII/BCRP cells
T3 construct: host or cells: MDCKII
T3 sequence (Q9UNQ0 1-655): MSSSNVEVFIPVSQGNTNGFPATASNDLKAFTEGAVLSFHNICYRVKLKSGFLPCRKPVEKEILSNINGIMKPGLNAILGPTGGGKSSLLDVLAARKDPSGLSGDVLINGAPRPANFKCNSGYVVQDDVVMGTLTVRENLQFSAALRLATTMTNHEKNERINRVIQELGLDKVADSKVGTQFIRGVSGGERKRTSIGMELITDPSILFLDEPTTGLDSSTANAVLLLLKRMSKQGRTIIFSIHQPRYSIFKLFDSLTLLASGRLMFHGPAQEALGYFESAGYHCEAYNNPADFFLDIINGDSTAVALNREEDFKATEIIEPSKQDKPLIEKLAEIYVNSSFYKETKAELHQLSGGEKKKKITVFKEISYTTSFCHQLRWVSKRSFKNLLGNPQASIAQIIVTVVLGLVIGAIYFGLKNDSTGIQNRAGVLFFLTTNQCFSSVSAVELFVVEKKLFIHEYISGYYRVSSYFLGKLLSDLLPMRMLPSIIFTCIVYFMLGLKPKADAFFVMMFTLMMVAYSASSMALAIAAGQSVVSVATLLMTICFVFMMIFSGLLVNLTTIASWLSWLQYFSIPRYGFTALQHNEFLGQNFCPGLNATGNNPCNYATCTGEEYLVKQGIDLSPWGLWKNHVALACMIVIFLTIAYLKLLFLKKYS
Procedure: Cells were then washed three times, each with 0.5 mL pre‐warmed HBSS buffer. […] The cells were then incubated for various times up to 60 min. […] At the designated times, 15 μL of apical buffer and 50 μL of basolateral buffer were sampled. Once all the samples were collected, 0.5 mL of ice‐cold HBSS buffer was added to the well to stop transport after which the cells were rinsed three times with 0.5 mL of ice‐cold HBSS. The filters with monolayers were then detached from the chamber and placed in a scintillation vial, and the cells were lysed with 0.33 mL hyamine hydroxide.
The permeability of digoxin and rosuvastatin (prototypical substrates for MDR1 and BCRP, respectively) was determined by the following ^18 : (4) Papp=CR·VR/CD^o·A·∆Δt, where Papp is the apparent permeability, CR is the concentration of substrate in the receiver chamber, CD^o is the concentration of substrate in the donor chamber at time zero, VR is the volume of buffer in the receiver chamber, A is the surface area of the insert filter membrane, and ∆t is the time over which permeability is measured.
A similar analysis can be performed for rosuvastatin by substituting ERRos for ERDig and ERRos+T for ERDig+T in Eqn 6.

[1] = in the presence of 500 μM TCMCB07, increased by

## CCCC[C@H](NC(C)=O)C(=O)N[C@H]1CC(=O)NCCCC[C@@H](C(=O)N[C@@H](C(=O)N2CCC[C@@H]2C(N)=O)C(C)C)NC(=O)[C@H](Cc2c[nH]c3ccccc23)NC(=O)[C@H](CCCN=C(N)N)NC(=O)[C@@H](Cc2ccc3ccccc3c2)NC(=O)[C@@H]2CCCN2C1=O [TCMCB07, Ac‐Nle‐c[Asp‐Pro‐dNal2′‐Arg‐Trp‐Lys]‐dVal‐dPro‐NH2] (Ac-[Nle]DP[d2Nal]RWK[dV][dP]-NH2; lactam 2-7)
OAT3
  IC50: could not be determined
MATE2‐K
  IC50: 20.7 ± 2.1 µM
MATE1
  IC50: 8.7 ± 0.4 µM
BCRP (ABCG2); MDCKII/BCRP, 500 μM TCMCB07, negative = efflux ratio increased
  % Change ER of rosuvastatin, 100·(1−ERRos+T/ERRos): −32%
BCRP (ABCG2); [1]
  increase of BCRP‐mediated permeability of rosuvastatin, A to B direction: 5%
  increase of BCRP‐mediated permeability of rosuvastatin, B to A direction: 37%
BCRP (ABCG2); transfected cells, 500 μM TCMCB07
  effect on BCRP‐mediated permeability of prototypical substrate: did not affect
